The values that follow come from patent US8021846B2, “Method for determining azole resistance in Candida glabrata” (Medical Diagnostic Laboratories, LLC, priority 2008, dated 2011).

≈ marks a conversion by molar mass, not a printed value.

This assay deals with Candida glabrata clinical isolates. Nature of the assay: Microbroth dilution assay (CLSI M27-A2) of azole susceptibility of clinical isolates.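 As to all read-outs here: growth of C. glabrata cervicovaginal isolates in 96-well plates, absorbance at 620 nm minus medium background, 35 °C for 24 and 48 h, DMSO ≦0.5%.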 The conditions noted are these: for % of isolates S (susceptible) / No. of isolates S (susceptible): 175 C. glabrata cervicovaginal clinical isolates, S = MIC ≦8 μg/ml fluconazole, ≦1 μg/ml voriconazole, proposed breakpoints for voriconazole and miconazole; for MIC: Nakaseomyces glabratus.

Excerpt: One hundred seventy-five (175) Candida glabrata clinical isolates were retrieved from cervicovaginal swabs. Clinical isolates were obtained from cervicovaginal swabs of female patients suspected of having vulvovaginal candidiasis (WC) from across the United States. Candida glabrata PCR positive swabs were struck out on Candida CHROMagar, and individual Candida glabrata colonies were isolated for susceptibility testing using the microbroth dilution assay according to the Clinical and Laboratory Standards Institute protocol. Susceptibilities of these isolates to triazole anti-fungal drugs (e.g., fluconazole, voriconazole, and miconazole) were determined.
The microbroth dilution assays were performed using RPMI 1640 (minus glutamine, and 0.165 M MOPS to pH 7.0) (Sigma, St. Louis, Mo.). […] Drugs were obtained from the following sources: fluconazole (LKT Laboratories, St. Paul, Minn.), miconazole (MP Biomedicals, Inc., Solon, Ohio) and voriconazole (Pfizer, New York, N.Y.). All drugs were dissolved in dimethyl sulfoxide (DMSO) to a final concentration of ≦0.5% in all experiments at which C. glabrata growth was not affected.
Protocols for microbroth dilution assays (i.e., susceptibility testing) was performed by MBD according to the Clincial and Laboratory Standards Institute (CLSI) guidelines outlined in M27-A2. Azole antifungals and concentrations tested were fluconazole (2 to 128 μg/ml), voriconazole (8 to 0.125 μg/ml), and miconazole (8 to 0.125 μg/ml). Candida glabrata isolates were growth in RPMI 1640 media (minus glutamine, plus 2% glucose, and 0.165M MOPS to pH 7.0) to mid-log phase and cultures were diluted to 5×10^3 cells/ml in RPMI 1640 medium. Aliquots of 100 μl were distributed to wells of a 96-well flat-bottom plate, except for row A which received 200 μl. Drug was added to row A at the desired concentration (fluconazole, 128 μg/ml, voriconazole 8 μg/ml, and miconazole 8 μg/ml) and then serially two-fold diluted to rows B through G; row H served as a drug-free control. Plates were incubated at 35° C. for 24 and 48 hours. Absorbance at 620 nm was read with a microplate reader (Beckman Coulter, Inc., Fullerton, Calif.); background due to medium was subtracted from all readings.
The MIC was defined as the lowest concentration inhibiting growth at least 80% relative to the drug-free control.

With `Clc1ccc(COC(Cn2ccnc2)c2ccc(Cl)cc2Cl)c(Cl)c1` (stereo not shown) [Miconazole, miconazole], the “% of isolates S (susceptible)” value is listed as 100.0% and the “No. of isolates S (susceptible)” value came out at 175. Also, the “Susceptibility of the clinical isolates (in words)” value (175 C. glabrata clinical isolates) was “All of the clinical isolates were susceptible”.

On to `C[C@@H](c1ncncc1F)[C@](O)(Cn1cncn1)c1ccc(F)cc1F` [Voriconazole, voriconazole], for which the “% of isolates S (susceptible)” value came to 62.3% and the “No. of isolates S (susceptible)” value worked out at 109.

For the compound `OC(Cn1cncn1)(Cn1cncn1)c1ccc(F)cc1F` [Fluconazole, fluconazole], the “% of isolates S (susceptible)” value is 30.9% and the “No. of isolates S (susceptible)” value worked out at 54. Moreover, where the note is “isolates of swab S1 (susceptible group)”, the MIC (commonly the smallest concentration in the dilution series that meets the test's criterion for growth inhibition) came to 8 µg/mL (≈ 26.1 µM). Also, the MIC (isolates of swab S2 (susceptible group)) stood at 4 µg/mL (≈ 13.1 µM). The same compound had an MIC (isolates of swab S3 (susceptible group)) of 4 µg/mL (≈ 13.1 µM). The MIC (isolates of swab S4 (susceptible group)) was 2 µg/mL (≈ 6.53 µM). This compound also showed an MIC (isolates of swab S5 (susceptible group)) of 4 µg/mL (≈ 13.1 µM). The MIC (isolates of swab S6 (susceptible group)) was 4 µg/mL (≈ 13.1 µM). Further, the MIC (isolates of swab S7 (susceptible group)) worked out at 4 µg/mL (≈ 13.1 µM). The compound further registered an MIC (isolates of swab S8 (susceptible group)) of 4 µg/mL (≈ 13.1 µM). Moreover, the MIC (isolates of swab S9 (susceptible group)) is 2 µg/mL (≈ 6.53 µM). This compound also yielded an MIC (isolates of swab S11 (S-DD group)) of 16 µg/mL (≈ 52.2 µM). This compound also had an MIC (isolates of swab S12 (S-DD group)) of 16 µg/mL (≈ 52.2 µM). The MIC (isolates of swab S13 (S-DD group)) is 16 µg/mL (≈ 52.2 µM). In addition, the MIC (isolates of swab S14 (S-DD group)) stood at 16 µg/mL (≈ 52.2 µM). For the setting “isolates of swab S15 (S-DD group)”, the MIC is 32 µg/mL (≈ 104 µM). Where the note is “isolates of swab S16 (S-DD group)”, the MIC stood at 16 µg/mL (≈ 52.2 µM). For the same compound, where the note is “isolates of swab S17 (S-DD group)”, the MIC came out at 16 µg/mL (≈ 52.2 µM). The same compound displayed an MIC (isolates of swab S18 (S-DD group)) of 16 µg/mL (≈ 52.2 µM). This compound also returned an MIC (isolates of swab S19 (S-DD group)) of 32 µg/mL (≈ 104 µM). Further, the minimum inhibitory concentration (MIC) (isolates of swab S20 (S-DD group)) was found to be 32 µg/mL (≈ 104 µM). The compound further registered an MIC (isolates of swab S21 (resistant group)) of 128 µg/mL (≈ 418 µM). The MIC (isolates of swab S22 (resistant group)) came out at 128 µg/mL (≈ 418 µM). This compound returned an MIC (isolates of swab S23 (resistant group)) of 128 µg/mL (≈ 418 µM). For the setting “isolates of swab S24 (resistant group)”, this compound displayed an MIC of 128 µg/mL (≈ 418 µM). Besides, the MIC (isolates of swab S25 (resistant group)) was determined as 64 µg/mL (≈ 209 µM). The compound also gave an MIC (isolates of swab S26 (resistant group)) of 128 µg/mL (≈ 418 µM). The MIC (isolates of swab S27 (resistant group)) turned out to be 64 µg/mL (≈ 209 µM). This compound gave an MIC (isolates of swab S28 (resistant group)) of 128 µg/mL (≈ 418 µM). In addition, the minimum inhibitory concentration (MIC) (isolates of swab S29 (resistant group)) is 64 µg/mL (≈ 209 µM). Moreover, under “swab S10, the single resistant isolate”, the MIC amounted to 128 µg/mL (≈ 418 µM). The MIC (swab S10, the two susceptible isolates) is 8 µg/mL (≈ 26.1 µM).
